Measurements published in US12006302B2, “Tau PET imaging ligands” (Janssen Pharmaceutica NV, priority 2016, dated 2024).
Each block holds one molecule with its values, some of them ahead of it.

Assays:
[1] = molecular target: peripheral cortical benzodiazepine receptors in activated microglia (Homo sapiens, UniProt P30536); conditions: literature; cited from earlier work
[2] = tested on: human AD brain cortex homogenates containing abundant NFT; conditions: literature; cited from earlier work
[3] = molecular target: T1, amyloid plaque-rich, NFT-poor AD brain homogenates (Homo sapiens, UniProt P05067); conditions: literature; cited from earlier work
T1 construct: amyloid plaques which form by aggregation of beta-amyloid peptide; host or cells: AD brain homogenates

[4] = literature; cited from earlier work
PHF = PHF (Homo sapiens, UniProt P10636); conditions: literature; cited from earlier work
monoamine oxidase MAO-B = molecular target: T2, monoamine oxidase MAO-B (Homo sapiens, UniProt P27338); conditions: literature; cited from earlier work
T2 construct: PET imaging of the human brain with the quinoline compound; host or cells: human brain in vivo
T2 sequence (P27338 1-520): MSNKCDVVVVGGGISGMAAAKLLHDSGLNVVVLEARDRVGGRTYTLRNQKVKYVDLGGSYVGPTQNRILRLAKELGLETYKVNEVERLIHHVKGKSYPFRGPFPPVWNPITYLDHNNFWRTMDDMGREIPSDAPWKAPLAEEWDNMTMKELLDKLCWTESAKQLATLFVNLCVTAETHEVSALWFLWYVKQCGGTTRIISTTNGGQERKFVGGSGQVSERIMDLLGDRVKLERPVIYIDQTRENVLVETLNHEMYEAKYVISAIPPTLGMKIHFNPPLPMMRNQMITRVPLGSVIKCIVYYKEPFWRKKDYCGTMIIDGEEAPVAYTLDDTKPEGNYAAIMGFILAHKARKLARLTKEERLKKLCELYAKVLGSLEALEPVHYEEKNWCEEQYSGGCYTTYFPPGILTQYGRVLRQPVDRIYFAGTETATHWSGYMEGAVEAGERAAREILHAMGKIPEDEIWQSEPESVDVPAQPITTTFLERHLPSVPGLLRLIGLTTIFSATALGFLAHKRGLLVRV

[5] = tested on: AD brain containing tau and Aβ pathology; assay: in vitro binding of tritiated tracers to frozen AD brain slices with tau and Aβ pathology; design: species or system human; conditions: tracer 10 nM
Method: (§1) The tracer was tested at 10 nM and higher concentrations were not investigated in this study.
(§2) [^3H]-AV-45 (selective for Aβ plaques) binds both tau and Aβ pathology (Aβ+/tau+, Tissue #28391) and Aβ pathology only (Aβ+/tau−, Tissue #92/050) human tissues as expected (FIG. 3L-M). As a control for the human AD tissues (Tissue #28391: FIG. 4, Tissue #92/050: FIG. 5) and striatal tissue (FIG. 6) used in this study immunohistochemistry was performed. […] Furthermore, MAO-B and MAO-A expression in the human striatal tissue (#S96/037) was confirmed using immunohistochemistry (FIG. 6).

[6] = tested on: AD tissue containing only Aβ plaques; assay: in vitro binding of tritiated tracers to tau-negative AD tissue; design: species or system human; conditions: tracer 10 nM
Method: as §1, §2

MAO = assay: in vitro binding of tritiated tracers to MAO-rich human tissue (striatum); conditions: tracer 10 nM
Method: as §1
In comparison, the tau tracer [^3H]-THK-5351 and the Aβ tracer [^3H]-AV-45 were used as THK-5351 is known to also bind MAO.

peripheral cortical benzodiazepine receptors in activated microglia, sequence (P30536 whole entry): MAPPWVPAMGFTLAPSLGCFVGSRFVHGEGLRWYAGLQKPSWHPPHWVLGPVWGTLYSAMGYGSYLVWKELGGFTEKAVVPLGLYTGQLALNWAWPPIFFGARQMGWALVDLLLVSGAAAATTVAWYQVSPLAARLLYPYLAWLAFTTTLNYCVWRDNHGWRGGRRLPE
PHF, sequence (P10636 1-441 isoform P10636-8): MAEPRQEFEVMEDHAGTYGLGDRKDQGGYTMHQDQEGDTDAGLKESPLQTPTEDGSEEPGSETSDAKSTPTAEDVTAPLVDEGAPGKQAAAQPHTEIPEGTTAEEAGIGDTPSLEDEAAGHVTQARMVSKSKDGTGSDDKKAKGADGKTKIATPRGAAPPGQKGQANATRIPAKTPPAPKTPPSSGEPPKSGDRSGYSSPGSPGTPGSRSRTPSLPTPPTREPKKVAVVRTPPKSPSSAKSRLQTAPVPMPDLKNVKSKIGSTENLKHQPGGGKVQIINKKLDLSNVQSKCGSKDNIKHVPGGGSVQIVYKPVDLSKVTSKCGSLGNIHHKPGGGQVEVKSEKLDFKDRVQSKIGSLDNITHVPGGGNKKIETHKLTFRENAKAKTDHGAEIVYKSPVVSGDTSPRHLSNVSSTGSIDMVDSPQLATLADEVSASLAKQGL
T1 sequence (P05067 672-713 limits assumed): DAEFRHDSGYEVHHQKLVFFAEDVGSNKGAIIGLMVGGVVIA

SMILES: CCC(C)N([11CH3])C(=O)c1cc2ccccc2c(-c2ccccc2Cl)n1 (centres unmarked) [[^11C]PK11195]
brain retention, patients versus healthy volunteers [1]: failing to show any differences

SMILES: Nc1c(F)ccc2cnc(-n3ccc4ccncc43)cc12 [^18F-MK-6240, 6-fluoro-3-(1H-pyrrolo[2,3-c]pyridine-1-yl)isoquinoline-5-amine]
binding to human AD brain cortex homogenates containing abundant NFT [2]: binds with high affinity | binding to amyloid plaque-rich, NFT-poor AD brain homogenates [3]: binds poorly | defluorination as skull uptake [4]: Moderate defluorination

SMILES: CNc1ccc(-c2ccc3cc(OC[C@H](O)C[18F])ccc3n2)cn1 [^18F-THK5351]
affinity to PHF (PHF): high affinity | off-target binding in PET imaging of the human brain (monoamine oxidase MAO-B): confounded by off-target binding

tracer binding to AD brain slices containing tau and Aβ pathology [5]: binds | tracer binding to tau-negative AD tissue containing only Aβ plaques [6]: does not bind | tracer binding to MAO-rich human tissue (striatum) (MAO): no binding
SMILES: Cc1cnc(Nc2ccc3cnccc3c2)cc1F [[^3H]-Co. No. 1]

tracer binding to tau-negative AD tissue containing only Aβ plaques [6]: binds | tracer binding to MAO-rich human tissue (striatum) (MAO): binds
SMILES: CNc1ccc(-c2ccc3cc(OC[C@H](O)CF)ccc3n2)cn1 [[^3H]-THK-5351, reference compound]
